# Reference: US12285470B2, “Trim proteins and galectins cooperate and codirect autophagy and are useful in the treatment of autophagy related diseases” (UNM RAINFOREST INNOVATIONS, priority 2016, dated 2025)
# Where a SMILES comes first, the peptide text is derived from it. The star is where a group is joined. βNA = c1ccc2cc(N*)ccc2c1
# How the values were obtained:
# [1] = tested on: primary murine bone marrow-derived macrophages (BMMs); assay: Oxygen consumption rate (Seahorse) in bone marrow-derived macrophages; assay type: cell-based
# [2] = tested on: HEK293 cells with YFP-Gal fusion; assay: YFP-Galectin puncta formation by high content microscopy; assay type: cell-based; settings: 100 μM, 1h
# Description: Data, means±SD; n=1000 cells per condition; n>3; ANOVA, Tukey's t test vs. control, *p<0.05.**p<0.01.
# a) Screen set up. […] Given that the endomembrane damage protection is a highly conserved process, we will use stable (Flp-In) YFP-Gal8 and YFP-Gal9 293A cells. […] In THP-1 cells, we will use endogenous Gal8 and Gal9 responses to lysosomal damage control. […] Quantification of target 1 (Gal8) and target II (Gal9) intracellular objects (Gal8 puncta) will be done by automated HC microscopy on our Cellomics Array Scanner system and processed, as we have recently published^99. We will use in primary tests parameters of 20 fields per well and >500 valid primary objects per well, corresponding to parameters that follow Z values of >0.5^155 in positive controls (100 μM GPN; 2 mM LLOMe) vs. negative controls (DMSO). For secondary tests of positive hits, 49 field/plate will be examined.
# [3] = tested on: HeLa cells; assay: High content microscopy of LC3 and ubiquitin puncta after lysosomal damage; assay type: cell-based
# Experimental: (§1) High content microscopy with automated image acquisition and quantification was carried out using a Cellomics HCS scanner and iDEV software (Thermo) in 96-well plates (Mandell et al., 2014). Immunofluorescence confocal microscopy was performed using an LSM510 confocal microscope and Zeiss software package. For quantification of puncta or total cell fluorescence, image J was used as described previously (Chauhan et al., 2015). For quantifying cell death, HeLa and derivative cells treated with 15 μM siramesine for 12 h were incubated with 7AAD (BD Pharmingen™; cat #559925) for 30 min and fluorescence of 7AAD bound to nuclear DNA measured in a flow cytometer.
# [4] = tested on: TFEB; assay: High content analysis of TFEB nuclear translocation; assay type: cell-based; settings: HeLa cells, lysosomal damage
# Experimental: as §1
# [5] = tested on: mTOR; assay: S6K1 phosphorylation (mTOR target) immunoblot in HeLa cells; assay type: cell-based; settings: 1 mM, 2h
# Experimental: (§2) Immunoblots and co-IPs assays for endogenous or exogenously expressed proteins were carried out as described previously (Chauhan et al., 2015). For immunoprecipitation experiments with exogenously expressed proteins, 293T cells were transfected with 5 μg of expression constructs by calcium phosphate for 24 h and lysed on ice using NP-40 buffer (Invitrogen) containing protease inhibitor cocktail (Roche, cat #11697498001) and […] (Sigma, cat #93482). Lysates were mixed with antibody (2-3 μg) incubated at 4° C. for 2 h followed by incubation with protein G Dynabeads (Life technologies) for 2 h at 4° C. Beads were washed four times with PBS and then boiled with SDS-PAGE buffer for analysis of interacting protein by Immunoblotting. Input lanes contained 10% of material unless otherwise indicated.
# [6] = tested on: DEPTOR; assay: DEPTOR levels in extracts of HeLa cells; assay type: cell-based; settings: 1 mM, 2h
# Experimental: as §2
# [7] = tested on: HeLa cells; assay: Cell death by 7AAD nuclear staining, flow cytometry; assay type: cell-based
# Experimental: as §1
# [8] = tested on: THP-1 cells; assay: Confocal microscopy of TRIM16 puncta in THP-1 cells; assay type: cell-based; settings: 0.5 mM
# Experimental: as §1
# [9] = tested on: Mtb Erdman; set-up: species or system C57BL/6J mice; settings: mouse, in vivo
# [10] = tested on: THP-1 macrophages; assay: Galectin puncta formation in THP-1 macrophages; assay type: cell-based; settings: 250 μM, 2h
# [11] = tested on: THP-1 macrophages; assay: Lysosomal damage readouts (cathepsin B activity, LysoTracker Red) in THP-1 macrophages; assay type: cell-based
# [12] = tested on: AMPK; assay: AMPK activation response in THP-1 macrophages; assay type: cell-based; settings: cells KD for Gal9
# [13] = Blood levels of rapamycin by mass spectrometry in mice on eRAPA chow; settings: 42 ppm eRAPA dose in chow; n=8 animals, mean±SD (±35 ng/ml)
# [14] = tested on: HeLa cells; assay: Confocal microscopy of TRIM16 puncta in HeLa cells; assay type: cell-based
# Experimental: as §1
# [15] = tested on: HeLa cells; settings: Petersen et al., 2013; cited from earlier work
structure (smiles),measurement,setting,value
"NCC(=O)N[C@@H](Cc1ccccc1)C(=O)Nc1ccc2ccccc2c1 [GPN, Gly-Phe-naphthylamide] (H-Gly-Phe-βNA)",oxygen consumption rate (OCR),[1],alters
same,cytoplasmic Galectin puncta formation response,[2],"Gal3, Gal8 and Gal9 give the most robust response"
"COC(=O)[C@H](CC(C)C)NC(=O)[C@@H](N)CC(C)C [LLOMe, Leu-Leu-O-Me]",LC3 response (endogenous LC3B puncta),[3],consistent LC3 dose response
same,abundance of ubiquitin puncta,[3]; high content microscopy,Dose-dependent increase
same,TFEB translocation to the nucleus,[4],translocated to the nucleus
same,mTOR activity (S6K1 phosphorylation),[5],inhibited
same,cellular DEPTOR level,[6],increased
same,lysosomal cell death,[7]; HeLa cells,cannot cause significant lysosomal cell death
same,TRIM16 puncta formation in leukocytes,[8],morphologically prominent
Nc1c(Br)cc(Br)cc1CN[C@H]1CC[C@H](O)CC1 [ambroxol],effect on Mtb lung CFU in combination with rifampicin,[9],synergism
CN(C)C(=N)N=C(N)N [metformin],Galectin puncta formation,[10],"causes Gal3, Gal8, and Gal9 puncta formation"
same,LysoTracker Red stain,[11]; THP-1 macrophages,Reduction
same,lysosomal cathepsin B activity,[11]; THP-1 macrophages,loss of activity
same,lysosomal damage,[11]; preliminary studies,causes lysosomal damage
same,AMPK activation,[12],Gal9-dependent AMPK activation
CO[C@H]1C[C@@H]2CC[C@@H](C)[C@@](O)(O2)C(=O)C(=O)N2CCCC[C@H]2C(=O)O[C@H]([C@H](C)C[C@@H]2CC[C@@H](O)[C@H](OC)C2)CC(=O)[C@H](C)/C=C(\C)[C@@H](O)[C@@H](OC)C(=O)[C@H](C)C[C@H](C)/C=C/C=C/C=C/1C [rapamycin],blood levels of rapamycin,[13],205 ng/mL
Fc1ccc(-n2cc(CCCCN3CCC4(CC3)OCc3ccccc34)c3ccccc32)cc1 [siramesine],sensitivity to cell death in TRIM16KO HeLa cells vs HeLa,"[7]; 15 μM, 12 h, 7AAD",increased sensitivity to cell death
same,TRIM16 puncta formation in HeLa cells,[14],formation of TRIM16 puncta that colocalized with LC3B
same,cell death in HeLa cells (literature),[15],can promote cell death
